Data as given in PMC12583704 (Signal Transduction and Targeted Therapy, 2025).
Where “and” joins values, the source holds several entries; their conditions need not be identical. Equal entries are not always repeated.

Test: Phase 1 study NCT03594422: adverse events graded by NCI CTCAE v4.03
Type: in vivo, human
Protocol: Part 1 was a dose-escalation study to determine the recommended phase 2 dose (RP2D) in solid tumors. […] The initial design was a 3 + 3 dose escalation from 20 mg, but the protocol was amended to randomly enroll and assign patients to starting doses of 30, 40, and 50 mg on the basis of safety data acquired in the CML trial.[20] […] An interactive web response system was used for randomization. Part 2 was a nonrandomized study focusing on patients with SDH-deficient GISTs. […] On the basis of preliminary data from adult patients, adolescent patients with advanced wild-type GISTs were also included in Part 2. The dosage for adolescents was adjusted according to their body weights.
AEs were evaluated at each follow-up visit: on Days 1, 8, 15, and 22 during Cycles 1 and 2; and on Days 1 and 15 in Cycle 3 and all subsequent cycles, up to 30 days after the final dose. All AEs were graded according to the National Cancer Institute Common Terminology Criteria for Adverse Events v4.03. Clinical laboratory investigations for routine blood examinations and serum chemistry parameters were performed during every cycle (on Day 1), during Cycles 1 and 2 (on Days 8, 15, and 22), and 30 days after the last dose of treatment. Urinalysis, coagulation, cardiac troponin I/T, lipase, amylase, and electrocardiographic evaluations were conducted at baseline; during Cycles 1 and 2 (on Days 1 and 15); during Cycles 3, 5, 7, and 9; every three cycles after Cycle 9 (on Day 1); and 14 days after the last dose of treatment. All patients underwent tumor imaging for response assessment via computed tomography or magnetic resonance imaging at screening and every two cycles (8 weeks) until progression or discontinuation. Target and nontarget lesions were assessed per the Response Evaluation Criteria in Solid Tumors version 1.1 (RECIST v1.1).

## Cc1ccc(C(=O)Nc2ccc(CN3CCN(C)CC3)c(C(F)(F)F)c2)cc1C#Cc1cnc2[nH]ncc2c1 [Olverembatinib, 3-[(1H-pyrazolo[3,4-b]pyridin-5-yl)ethynyl]-4-methyl-N-{4-[(4-methylpiperazin-1-yl)methyl]-3-(trifluoromethyl)phenyl]benzamide]
40 mg (n = 32), Grade 3-5
  TEAE: Constipation: 0 n (%)
  TEAE: Fatigue: 1 (3.1) n (%)
  TEAE: Hyperuricemia: 0 n (%)
  TEAE: Hypoalbuminemia: 0 n (%)
  TEAE: Leukocyte count increased: 0 n (%)
  TEAE: Melanocytic nevus: 0 n (%)
  TEAE: Neutrophil count increased: 0 n (%)
  TEAE: Pyrexia: 0 n (%)
  TEAEs: 12 (37.5) n (%)
  TRAE: ALT increased: 0 n (%)
  TRAE: AST increased: 0 n (%)
  TRAE: Anemia: 0 n (%)
  TRAE: Blood creatinine increased: 0 n (%)
  TRAE: Constipation: 0 n (%)
  TRAE: Fatigue: 1 (3.1) n (%)
  TRAE: Hypoalbuminemia: 0 n (%)
  TRAE: Leukocyte count increased: 0 n (%)
  TRAE: Melanocytic nevus: 0 n (%)
  TRAE: Neutrophil count increased: 0 n (%)
  TRAE: Platelet count increased: 0 n (%)
  TRAE: Pyrexia: 0 n (%)
50 mg (n = 16), Any grade
  TEAE: Abdominal pain: 3 (18.8) n (%)
  TEAE: Alanine aminotransferase increased: 6 (37.5) n (%)
  TEAE: Anemia: 8 (50.0) n (%)
  TEAE: Aspartate aminotransferase increased: 10 (62.5) n (%)
  TEAE: C-reactive protein increased: 4 (25.0) n (%)
  TEAE: Constipation: 7 (43.8) n (%)
  TEAE: Fatigue: 5 (31.3) n (%)
  TEAE: Hyperuricemia: 5 (31.3) n (%)
  TEAE: Hypoalbuminemia: 5 (31.3) n (%)
  TEAE: Leukocyte count increased: 8 (50.0) n (%)
  TEAE: Melanocytic nevus: 4 (25.0) n (%)
  TEAE: Neutrophil count increased: 6 (37.5) n (%)
  TEAE: Pyrexia: 6 (37.5) n (%)
  TEAEs: 16 (100.0) n (%)
  TRAE: ALT increased: 5 (31.3) n (%)
  TRAE: AST increased: 6 (37.5) n (%)
  TRAE: Anemia: 4 (25.0) n (%)
  TRAE: Blood creatinine increased: 1 (6.3) n (%)
  TRAE: Constipation: 5 (31.3) n (%)
  TRAE: Fatigue: 5 (31.3) n (%)
  TRAE: Hypoalbuminemia: 3 (18.8) n (%)
  TRAE: Leukocyte count increased: 8 (50.0) n (%)
  TRAE: Melanocytic nevus: 4 (25.0) n (%)
  TRAE: Neutrophil count increased: 6 (37.5) n (%)
  TRAE: Platelet count increased: 2 (12.5) n (%)
  TRAE: Pyrexia: 4 (25.0) n (%)
50 mg (n = 16), Grade 3-5
  TEAE: Abdominal pain: 0 n (%)
  TEAE: Alanine aminotransferase increased: 2 (12.5) n (%)
  TEAE: Anemia: 1 (6.3) n (%)
  TEAE: Aspartate aminotransferase increased: 2 (12.5) n (%)
  TEAE: C-reactive protein increased: 0 n (%)
  TEAE: Constipation: 0 n (%)
  TEAE: Fatigue: 0 n (%)
  TEAE: Hyperuricemia: 0 n (%)
  TEAE: Hypoalbuminemia: 0 n (%)
  TEAE: Leukocyte count increased: 0 n (%)
  TEAE: Melanocytic nevus: 0 n (%)
  TEAE: Neutrophil count increased: 0 n (%)
  TEAE: Pyrexia: 0 n (%)
  TEAEs: 9 (56.3) n (%)
  TRAE: ALT increased: 1 (6.3) n (%)
  TRAE: AST increased: 1 (6.3) n (%)
  TRAE: Anemia: 0 n (%)
  TRAE: Blood creatinine increased: 0 n (%)
  TRAE: Constipation: 0 n (%)
  TRAE: Fatigue: 0 n (%)
  TRAE: Hypoalbuminemia: 0 n (%)
  TRAE: Leukocyte count increased: 0 n (%)
  TRAE: Melanocytic nevus: 0 n (%)
  TRAE: Neutrophil count increased: 0 n (%)
  TRAE: Platelet count increased: 0 n (%)
  TRAE: Pyrexia: 0 n (%)
Total (n = 66), Any grade
  TEAE: Abdominal pain: 15 (22.7) n (%)
  TEAE: Alanine aminotransferase increased: 25 [37.9%] n (%) and 25 (37.9) n (%)
  TEAE: Anemia: 31 [47.0%] n (%) and 31 (47.0) n (%)
  TEAE: Aspartate aminotransferase increased: 31 [47%] n (%) and 31 (47.0) n (%)
  TEAE: C-reactive protein increased: 15 (22.7) n (%)
  TEAE: Constipation: 27 [40.9%] n (%) and 27 (40.9) n (%)
  TEAE: Fatigue: 20 [30.3%] n (%) and 20 (30.3) n (%)
  TEAE: Hyperuricemia: 31 (47.0) n (%)
  TEAE: Hypoalbuminemia: 14 (21.2) n (%)
  TEAE: Leukocyte count increased: 32 [48.5%] n (%) and 32 (48.5) n (%)
  TEAE: Melanocytic nevus: 17 (25.8) n (%)
  TEAE: Neutrophil count increased: 25 [37.9%] n (%) and 25 (37.9) n (%)
  TEAE: Pyrexia: 28 [42.4%] n (%) and 28 (42.4) n (%)
  TEAEs: 66 (100.0%) n (%) and 66 (100.0) n (%)
  TRAE: ALT increased: 20 (30.3) n (%)
  TRAE: AST increased: 23 (34.8) n (%)
  TRAE: Anemia: 9 (13.6) n (%)
  TRAE: Blood creatinine increased: 9 (13.6) n (%)
  TRAE: Constipation: 23 (34.8) n (%)
  TRAE: Fatigue: 18 (27.3) n (%)
  TRAE: Hypoalbuminemia: 10 (15.2) n (%)
  TRAE: Leukocyte count increased: 27 (40.9) n (%)
  TRAE: Melanocytic nevus: 15 (22.7) n (%)
  TRAE: Neutrophil count increased: 22 (33.3) n (%)
  TRAE: Platelet count increased: 7 (10.6) n (%)
  TRAE: Pyrexia: 19 (28.8) n (%)
Total (n = 66), Grade 3-5
  TEAE: Abdominal pain: 1 (1.5) n (%)
  TEAE: Alanine aminotransferase increased: 2 (3.0) n (%)
  TEAE: Anemia: 4 (6.1) n (%)
  TEAE: Aspartate aminotransferase increased: 2 (3.0) n (%)
  TEAE: C-reactive protein increased: 0 n (%)
  TEAE: Constipation: 0 n (%)
  TEAE: Fatigue: 1 (1.5) n (%)
  TEAE: Hyperuricemia: 1 (1.5) n (%)
  TEAE: Hypoalbuminemia: 0 n (%)
  TEAE: Leukocyte count increased: 0 n (%)
  TEAE: Melanocytic nevus: 0 n (%)
  TEAE: Neutrophil count increased: 0 n (%)
  TEAE: Pyrexia: 0 n (%)
  TEAEs: 26 (39.4) n (%)
  TRAE: ALT increased: 1 (1.5) n (%)
  TRAE: AST increased: 1 (1.5) n (%)
  TRAE: Anemia: 0 n (%)
  TRAE: Blood creatinine increased: 0 n (%)
  TRAE: Constipation: 0 n (%)
  TRAE: Fatigue: 1 (1.5) n (%)
  TRAE: Hypoalbuminemia: 0 n (%)
  TRAE: Leukocyte count increased: 0 n (%)
  TRAE: Melanocytic nevus: 0 n (%)
  TRAE: Neutrophil count increased: 0 n (%)
  TRAE: Platelet count increased: 0 n (%)
  TRAE: Pyrexia: 0 n (%)
All 66 patients
  patients who experienced grade ≥3 TRAEs: 13.6%
  patients who experienced treatment-related AEs (TRAEs): 93.9%
  treatment-related serious AEs: 7.6%
All patients, Population, N 68
  Treatment-related SAE: 5 (7.4) n (%)
  Treatment-related SAE: Anemia: 1 (1.5) n (%)
  Treatment-related SAE: Arteriosclerosis coronary artery: 1 (1.5) n (%)
  Treatment-related SAE: Intestinal obstruction: 2 (2.9) n (%)
  Treatment-related SAE: Leukemoid reaction: 1 (1.5) n (%)
Based on safety data from a previous phase 1 study and randomization in Part 1
  RP2D: 40 mg QOD
In vivo
  treatment discontinuation because of AEs: no patients discontinued treatment because of AEs
